Data from PubChem BioAssay (NCI).
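Interpolation was linear, between the two tested concentrations surrounding the appropriate level; five concentrations were tested over 48 hours in 96-well plates. TGI denotes the concentration required for complete inhibition of growth.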

Assays:
Experiment in all cases: NCI anticancer screen, dose series, 48 h
UACC-257 melanoma = tested on: UACC-257 melanoma
MDA-N = tested on: MDA-N
COLO 205 colon = tested on: COLO 205 colon
SN12C renal = tested on: SN12C renal
UO-31 renal = tested on: UO-31 renal
EKVX NSCLC = tested on: EKVX NSCLC
MDA-MB-231 breast = tested on: MDA-MB-231 breast
SNB-75 CNS = tested on: SNB-75 CNS
SK-MEL-5 melanoma = tested on: SK-MEL-5 melanoma
OVCAR-4 ovarian = tested on: OVCAR-4 ovarian
RPMI-8226 leukemia = tested on: RPMI-8226 leukemia
HS 578T breast = tested on: HS 578T breast
NCI/ADR-RES ovarian = tested on: NCI/ADR-RES ovarian
NCI-H460 lung = tested on: NCI-H460 lung
SF-295 CNS = tested on: SF-295 CNS
K-562 leukemia = tested on: K-562 leukemia
A498 renal = tested on: A498 renal
MCF7 breast = tested on: MCF7 breast
SR leukemia = tested on: SR leukemia
ACHN renal = tested on: ACHN renal
U251 CNS = tested on: U251 CNS
SK-MEL-28 melanoma = tested on: SK-MEL-28 melanoma
CAKI-1 renal = tested on: CAKI-1 renal
PC-3 prostate = tested on: PC-3 prostate
TK-10 renal = tested on: TK-10 renal
UACC-62 melanoma = tested on: UACC-62 melanoma
SF-539 CNS = tested on: SF-539 CNS
HT29 colon = tested on: HT29 colon
NCI-H522 lung = tested on: NCI-H522 lung
A549 NSCLC = tested on: A549 NSCLC
DU-145 prostate = tested on: DU-145 prostate
IGROV1 ovarian = tested on: IGROV1 ovarian
HCT-116 colon = tested on: HCT-116 colon
OVCAR-8 ovarian = tested on: OVCAR-8 ovarian
T-47D breast = tested on: T-47D breast
M14 melanoma = tested on: M14 melanoma
KM12 colon = tested on: KM12 colon
SW-620 colon = tested on: SW-620 colon
HOP-92 NSCLC = tested on: HOP-92 NSCLC
HOP-62 NSCLC = tested on: HOP-62 NSCLC
MDA-MB-435 = tested on: MDA-MB-435
OVCAR-3 ovarian = tested on: OVCAR-3 ovarian
SNB-19 CNS = tested on: SNB-19 CNS
786-0 renal = tested on: 786-0 renal
OVCAR-5 ovarian = tested on: OVCAR-5 ovarian
SK-MEL-2 melanoma = tested on: SK-MEL-2 melanoma
RXF 393 renal = tested on: RXF 393 renal
MOLT-4 leukemia = tested on: MOLT-4 leukemia
SF-268 CNS = tested on: SF-268 CNS
CCRF-CEM leukemia = tested on: CCRF-CEM leukemia
NCI-H226 lung = tested on: NCI-H226 lung
LOX IMVI melanoma = tested on: LOX IMVI melanoma
SK-OV-3 ovarian = tested on: SK-OV-3 ovarian
BT-549 breast = tested on: BT-549 breast
HCC-2998 colon = tested on: HCC-2998 colon
HCT-15 colon = tested on: HCT-15 colon
MALME-3M melanoma = tested on: MALME-3M melanoma
NCI-H23 lung = tested on: NCI-H23 lung

CC(=O)OC/C=C/[C@H](O[Si](C)(C)C(C)(C)C)[C@@H](O)/C=C/COC(C)=O
TGI (UACC-257 melanoma): > 100 µM
TGI (MDA-N): > 100 µM
TGI (COLO 205 colon): > 100 µM
TGI (SN12C renal): > 100 µM
TGI (UO-31 renal): > 100 µM
TGI (EKVX NSCLC): > 100 µM
TGI (MDA-MB-231 breast): > 100 µM
TGI (SNB-75 CNS): > 100 µM
TGI (SK-MEL-5 melanoma): > 100 µM
TGI (OVCAR-4 ovarian): > 100 µM
TGI (RPMI-8226 leukemia): 43.7 µM
TGI (HS 578T breast): > 100 µM
TGI (NCI/ADR-RES ovarian): > 100 µM
TGI (NCI-H460 lung): > 100 µM
TGI (SF-295 CNS): > 100 µM
TGI (K-562 leukemia): 52.8 µM
TGI (A498 renal): > 100 µM
TGI (MCF7 breast): > 100 µM
TGI (SR leukemia): 86.2 µM
TGI (ACHN renal): > 100 µM
TGI (U251 CNS): > 100 µM
TGI (SK-MEL-28 melanoma): > 100 µM
TGI (CAKI-1 renal): > 100 µM
TGI (PC-3 prostate): > 100 µM
TGI (TK-10 renal): > 100 µM
TGI (UACC-62 melanoma): > 100 µM
TGI (SF-539 CNS): > 100 µM
TGI (HT29 colon): > 100 µM
TGI (NCI-H522 lung): > 100 µM
TGI (A549 NSCLC): > 100 µM
TGI (DU-145 prostate): > 100 µM
TGI (IGROV1 ovarian): > 100 µM
TGI (HCT-116 colon): > 100 µM
TGI (OVCAR-8 ovarian): > 100 µM
TGI (T-47D breast): > 100 µM
TGI (M14 melanoma): > 100 µM
TGI (KM12 colon): > 100 µM
TGI (SW-620 colon): > 100 µM
TGI (HOP-92 NSCLC): > 100 µM
TGI (HOP-62 NSCLC): > 100 µM
TGI (MDA-MB-435): > 100 µM
TGI (OVCAR-3 ovarian): > 100 µM
TGI (SNB-19 CNS): > 100 µM
TGI (786-0 renal): > 100 µM
TGI (OVCAR-5 ovarian): > 100 µM
TGI (SK-MEL-2 melanoma): > 100 µM
TGI (RXF 393 renal): > 100 µM
TGI (MOLT-4 leukemia): 54.8 µM
TGI (SF-268 CNS): > 100 µM
TGI (CCRF-CEM leukemia): 52 µM
TGI (NCI-H226 lung): > 100 µM
TGI (LOX IMVI melanoma): > 100 µM
TGI (SK-OV-3 ovarian): > 100 µM
TGI (BT-549 breast): > 100 µM
TGI (HCC-2998 colon): > 100 µM
TGI (HCT-15 colon): > 100 µM
TGI (MALME-3M melanoma): > 100 µM
TGI (NCI-H23 lung): > 100 µM

CC1OC(OC2C(O)COC(OC3C(C)OC(OC4C(OC(=O)[C@]56CCC(C)(C)C[C@@H]5C5=CCC7[C@@]8(C)C[C@H](O)[C@H](OC9OC(CO)C(O)C(OC%10OC(CO)C(O)C(O)C%10O)C9O)[C@@](C)(CO)[C@@H]8CC[C@@]7(C)[C@]5(C)CC6)OCC(O)C4O)C(O)C3OC3OCC(O)(CO)C3O)C2O)C(O)C(O)C1O (stereo partly drawn)
TGI (UACC-257 melanoma): 20.9 µM
TGI (MDA-N): 19.2 µM
TGI (COLO 205 colon): 14.9 µM
TGI (SN12C renal): 12 µM
TGI (UO-31 renal): 10.3 µM
TGI (EKVX NSCLC): 13.2 µM
TGI (MDA-MB-231 breast): 16.7 µM
TGI (SNB-75 CNS): 21.3 µM
TGI (SK-MEL-5 melanoma): 15.8 µM
TGI (OVCAR-4 ovarian): 19.5 µM
TGI (RPMI-8226 leukemia): 50 µM
TGI (HS 578T breast): 22.4 µM
TGI (NCI/ADR-RES ovarian): 16.7 µM
TGI (NCI-H460 lung): 36.2 µM
TGI (SF-295 CNS): 18.6 µM
TGI (K-562 leukemia): 50 µM
TGI (A498 renal): 20.4 µM
TGI (MCF7 breast): 29.4 µM
TGI (SR leukemia): 16 µM
TGI (ACHN renal): 19.7 µM
TGI (U251 CNS): 20.6 µM
TGI (SK-MEL-28 melanoma): 14 µM
TGI (CAKI-1 renal): 12.4 µM
TGI (PC-3 prostate): 13.7 µM
TGI (TK-10 renal): 22.1 µM
TGI (UACC-62 melanoma): 22.9 µM
TGI (SF-539 CNS): 17.5 µM
TGI (NCI-H522 lung): 17.4 µM
TGI (A549 NSCLC): 13.9 µM
TGI (DU-145 prostate): 16.2 µM
TGI (HCT-116 colon): 32.2 µM
TGI (OVCAR-8 ovarian): 18.9 µM
TGI (T-47D breast): 25 µM
TGI (M14 melanoma): 13 µM
TGI (KM12 colon): 26.2 µM
TGI (SW-620 colon): 15.7 µM
TGI (HOP-92 NSCLC): 19.7 µM
TGI (HOP-62 NSCLC): 20.7 µM
TGI (MDA-MB-435): 24.4 µM
TGI (OVCAR-3 ovarian): 19.1 µM
TGI (SNB-19 CNS): 16.6 µM
TGI (786-0 renal): 15.4 µM
TGI (OVCAR-5 ovarian): 17.4 µM
TGI (RXF 393 renal): 17.2 µM
TGI (MOLT-4 leukemia): 30.1 µM
TGI (SF-268 CNS): 20.3 µM
TGI (CCRF-CEM leukemia): 15.4 µM
TGI (NCI-H226 lung): 23.4 µM
TGI (LOX IMVI melanoma): 17.8 µM
TGI (SK-OV-3 ovarian): 18 µM
TGI (BT-549 breast): 13.3 µM
TGI (HCC-2998 colon): 20.8 µM
TGI (HCT-15 colon): 19.1 µM
TGI (MALME-3M melanoma): 13.2 µM
TGI (NCI-H23 lung): 14.3 µM
